According to US20190183890A1, “METHODS AND COMPOSITIONS FOR PROMOTING HAIR GROWTH” (Rophe Pharma, Inc., priority 2016, published 2019):

Experiments:
androgenic alopecia [1] = test system: androgenic alopecia
androgenic alopecia [2] = details: topical

With Cl.NNc1nncc2ccccc12 [hydralazine, 1-hydrazinophthalazine monohydrochloride] the “men with visible enhancement in hair count and hair thickness” value (androgenic alopecia [1]; 12 men aged 33-69 years, 150, then 300, then 600 mg/100 ml, after 6-8 weeks of treatment) was 11 out of the 12, the “treatment time to visible enhancement in hair count and hair thickness” value (androgenic alopecia [1]; 12 men, 150 to 600 mg/100 ml) was 6-8 weeks and the “onset of effect compared with Rogaine” value (androgenic alopecia [1]; 12 men, visible enhancement after 6-8 weeks) was “much faster onset of effect than Rogaine”. For the same compound, the hair regrowth (androgenic alopecia [2]; 0.2% solution in glycol, alcohol and water, over 200 patients, mostly androgenic alopecia) was “hair grew back” and the “time until hair growth visible” value (androgenic alopecia [2]; 0.2% solution, treatment has to be continued every month to sustain the hair) was “visible after the first month”.
